Experimental data as given in patent US20140357725A1, “TERPENE ANALOGUES AND USES THEREOF FOR TREATING NEUROLOGICAL CONDITIONS” (NEUROQUEST INC., priority 2011, published 2014).
Where two headings read alike, the source gives them in different places.

Assays:
TRPV1 = target: T1, TRPV1 (Homo sapiens, UniProt Q8NER1); test: TRPV1 assay, calcium imaging; format: cell-based; conditions: Ca2+ imaging after 1 μM capsaicin, HEK-TRPV cells
T1 construct: expressed in transfected cells; host or cells: HEK-TRPV cells
Procedure: Briefly, cells were seeded into poly-L-lysine-coated, glass-bottom, 24-well plates (1×10^5 cells/well) and incubated overnight under standard culture conditions to achieve the desired confluency. Culture media was removed and cells were washed twice with HBS prior to incubation for 15 to 60 min at 37° C. with a labelling mixture comprised of Fura-2-AM and pluronic acid in HBS. Data collection occurred over an eight minute period and followed the same general sequence. Following loading, cells were stimulated by addition of 1 μM of capsaicin agonist for 2 min, after which a concentration series of the test sample (e.g. (0.5, 5, 10, 50 μg/ml) was added and imaging continued for an additional 5 min. Capsazepine (20 μM) served as a known reference antagonist, while cells that were mock-treated or received vehicle (e.g., DMSO) alone served as negative controls. For imaging, plates were placed on the stage of an inverted epifluorescence microscope (e.g., Axiovert 200, Zeiss) equipped with a CCD digital camera (e.g., Axiocam MRm, Zeiss). For each well of the plate, a sequence of image pairs (excitation at 340 nm and 380 nm) were collected to capture intracellular calcium flux. Image sequences were analyzed in ImageJ (NIH) and average pixel intensities calculated for six representative cells in each test condition to achieve mean fluorescence.

zebrafish embryos = test: Zebrafish response assay (embryonic touch response/swim behaviour, complete anaesthesia); format: in vivo; conditions: Danio rerio, 1.5 h; complete anaesthesia (scale 1) in 50% of embryos, 90 min at 28° C., 54 hpf AB wild type embryos
From the text: Briefly, the ZEA assay involved applying essential oils, fractions or individual compounds to developmentally staged zebrafish embryos followed by monitoring of embryonic touch response/swim behaviour and evaluation of the dose response relationship for each substance. Using a four point scale to describe the embryonic behaviours (Table 4), initial analysis focused on monitoring and recording these changes and evaluating the level of bioactivity. […] (optimal temperature for embryonic growth) in the diluted compound. • The four point scale (Table 4) was used to evaluate the touch response and swim behaviour for each embryo in all wells. • The effectiveness of the compound was based on its ability to generate complete anesthesia (scale: 1) in 50% of the embryos at a given concentration (EC50). • The EC50 values were calculated using GraphPad Prism® software to analyze the log (dose) response curves. The results are shown in Table 3, and in FIG. 3 as a dose response curve of zebrafish embryo assay, a percentage response versus percentage of compound present.

[1] = tested on: voltage-gated Na+ channels; test: Sodium (Na+) channel analysis in rat DRG neurons using whole cell patch-clamp; format: cell-based
Procedure: Isolated DRG neurons were suspended in primary neuron basal media and placed on glass coverslips for incubation in humidified atmosphere of 5% CO2 at 37° C. Coverslip carrying cells was transferred to the bath of an inverted microscope (Zeiss), continuously perfused with oxygenated artificial cerebro-spinal fluid (ACSF) containing (in mM) 124 NaCl, 2.5 KCl, 2 CaCl2, 1 MgSO4, 25 NaHCO3, 1 NaH2PO4, and 10 glucose, at a rate of 2-3 ml/min. Recording of whole-cell membrane currents were made at room temperature. Recording pipette (4-6 MO) was filled with internal solution containing (in mM) 145 K-gluconate, 5 NaCl, 1 MgCl2, 0.2 EGTA, 10 HEPES, 2 Mg-ATP, 0.1 Na-GTP, and 10 phosphocreatine. To isolate Na^+ currents, DRG neurons were superfused with ACSF containing tetraethylammonium chloride (TEA) 5 mM, cesium chloride (CsCl) 100 μM and cadmium chloride (CdCl) 1 mM, to block potassium and calcium currents. OBM compounds were freshly dissolved in ASCF containing TEA, CsCl and CdCl, prior application via the bath.
For recording Na^+ currents, cells were held at −60 mV before applying a conditioning hyperpolarizing step (50 ms) to −90 mv to reactivate the voltage-gated Na^+ channels. The conditioning pulse was followed by depolarizing (150 ms) test pulses to 50 mV in 10 mV increments. Na^+ currents were recorded in absence, after 3 min in presence of the drugs and after a recovery time of 3 min.

[2] = Na+ currents, rat DRG neurons, whole-cell patch clamp, 3 min in presence of drug, read-out: IC50

T1 sequence (Q8NER1 whole entry, species assumed): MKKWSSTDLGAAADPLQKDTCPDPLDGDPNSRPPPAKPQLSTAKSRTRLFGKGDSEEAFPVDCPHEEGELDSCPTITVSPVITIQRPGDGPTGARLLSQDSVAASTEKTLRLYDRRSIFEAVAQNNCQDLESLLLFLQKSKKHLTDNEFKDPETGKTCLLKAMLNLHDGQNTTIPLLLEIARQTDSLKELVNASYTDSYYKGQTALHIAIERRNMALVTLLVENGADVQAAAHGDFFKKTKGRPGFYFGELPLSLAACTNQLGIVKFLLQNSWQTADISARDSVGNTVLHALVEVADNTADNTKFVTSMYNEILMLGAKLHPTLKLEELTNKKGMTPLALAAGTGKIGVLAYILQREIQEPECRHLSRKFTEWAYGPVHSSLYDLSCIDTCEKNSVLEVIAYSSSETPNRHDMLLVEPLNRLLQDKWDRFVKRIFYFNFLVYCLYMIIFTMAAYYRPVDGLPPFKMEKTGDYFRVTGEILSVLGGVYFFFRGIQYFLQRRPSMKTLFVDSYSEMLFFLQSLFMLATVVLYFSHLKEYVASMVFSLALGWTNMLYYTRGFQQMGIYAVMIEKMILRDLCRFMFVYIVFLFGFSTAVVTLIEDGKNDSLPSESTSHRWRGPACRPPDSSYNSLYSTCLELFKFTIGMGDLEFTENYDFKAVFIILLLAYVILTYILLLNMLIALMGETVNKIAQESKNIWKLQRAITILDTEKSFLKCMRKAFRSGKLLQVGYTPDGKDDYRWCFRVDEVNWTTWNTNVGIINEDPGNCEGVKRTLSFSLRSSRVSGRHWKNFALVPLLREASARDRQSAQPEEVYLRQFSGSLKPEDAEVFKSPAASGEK

Row | SMILES | IC50 (TRPV1) | IC50 [1, 2] [µM] | IC50 ([1]; percentage sodium current versus concentration, FIG. 1, read-out: Calculated IC50) [µM] | EC50 (zebrafish embryos) [µM]
1 | COCC1CC1(C)CCC=C(C)C (centres unmarked) [OBM 2989, 2-(methoxymethyl)-1-methyl-1-(4-methylpent-3-en-1-yl)cyclopropane] | – | 5000 to 10000 | – | > 450
2 | CC(C)=CCCC1(C)CC1COCc1ccccc1 (centres unmarked) [OBM 2993] | – | < 10000 | – | > 450
3 | CC(C)=CCCC1(C)CC1COCc1ccccc1Br (centres unmarked) [OBM 2994, 1-bromo-2-(((2-methyl-2-(4-methylpent-3-en-1-yl)cyclopropyl)methoxy)methyl)benzene] | – | < 10000 | – | > 450
4 | CC(C)=CCCC1(C)CC1COCc1ccccc1Cl (centres unmarked) [OBM 2995, 1-chloro-2-(((2-methyl-2-(4-methylpent-3-en-1-yl)cyclopropyl)methoxy)methyl)benzene] | – | < 10000 | – | > 450

Second part, led by results:

Row | IC50 (TRPV1) | IC50 [1, 2] [µM] | IC50 ([1]; percentage sodium current versus concentration, FIG. 1, read-out: Calculated IC50) [µM] | SMILES | EC50 (zebrafish embryos) [µM]
5 | agonist | 100 to 1000 | 700 | CC(C)=CCCC1(C)CC1CO (centres unmarked) [OBM 2979, (2-methyl-2-(4-methylpent-3-en-1-yl)cyclopropyl)methanol] | 1 to 100
6 | – | 1000 to 5000 | – | CC(C)=CCCC1(c2ccccc2)CC1CO (centres unmarked) [OBM 2999, (2-(4-methylpent-3-en-1-yl)-2-phenylcyclopropyl) methanol] | 100 to 450
